According to patent publication US10123998B2, “Kinase modulation, and indications therefor” (Plexxikon Inc., priority 2012, dated 2018):

Columns and labels:
[1] = system: Osteoclast precursor cells; experiment: Osteoclast differentiation assay; assay type: cell-based
Experimental: Further, an osteoclast differentiation assay is used to assess the efficacy of Fms inhibitors for treating bone disease such as osteoarthritis. On day 0, Osteoclast Medium BulletKit (Lonza catalog # PT-8001, containing Media, FBS, L-Glutamine, PenStrep, RANKL, and M-CSF) media is thawed and the FBS, L-glutamine and PenStrep from the kit is added to 100 mL of Osteoclast Precursor Basal medium to provide the Osteoclast Precursor Growth Medium (OPGM). This is warmed to 37° C. Osteoclast precursor cells (Lonza catalog #2T-110) frozen in cryovial are warmed to 37° C. and transferred to a 50 mL conical tube. The cryovial is rinsed with OPGM and added dropwise to the conical tube of cells with swirling, then the volume is adjusted to 20-30 mL with addition of OPGM. The cells are centrifuged at 200×g for 15 minutes at room temperature and all but approximately 3 mL of supernatant is removed to a new conical tube. The cells are suspended in the remaining supernatant and the volume is adjusted to 10-15 mL with OPGM added dropwise with swirling. The cells are centrifuged at 200×g for 15 minutes at room temperature and all but approximately 1 mL of supernatant is removed. The cells are resuspended in the remaining supernatant, counted, and the volume adjusted with an appropriate amount of OPGM to provide approximately 1×10^5 cells/mL. A 0.1 mL aliquot of cells is added to each well of a 96-well plate. Compound to be tested is prepared in DMSO for plating at a high concentration of 2.5 mM, with 8 point 1:3 serial dilutions. A 1 μL aliquot of each compound dilution is added to a 96 well v-bottom polypropylene plate and 0.124 mL of OPGM is added to the compound. Then 50 μL of the compound in OPGM is added to the osteoclast precursor cells in 96-well plate (providing highest test concentration of 5 μM). RANKL (2 μg) from the BulletKit is reconstituted in 1 mL of OPGM, then vortexed and centrifuged briefly. A 792 μL aliquot of RANKL is added to 6 mL of OPGM and 50 μL is added to low control wells. Then 76.6 μL M-CSF ([…]) from the BulletKit is added to the remaining 5.8 mL of OPGM/RANKL solution (4×RANKL/M-CSF/OPGM). A 50 μL aliquot of this is added to the remaining wells, and the remainder is stored at 4° C. for later use. The plate is incubated at 37° C. for 6 days, then the remaining OPGM/RANKL/M-CSF solution is warmed to 37° C. The remaining approximately 198 μL is combined with 6 mL of OPGM. The media is aspirated from the osteoclast wells and 100 μL of RANKL/OPGM is added to the low controls. The remaining RANKL/OPGM is combined with the approximately 18.5 μL of remaining M-CSF. The remaining 4×RANKL/M-CSF/OPGM from day 0 is diluted to 1× and combined with the freshly prepared solution. A 0.1 mL aliquot of this is added to each osteoclast well and incubated for 37° C. for 1 day. The Acid Phosphatase kit (Cayman Chemical catalog #10008051) is warmed to room temperature. The assay buffer is diluted 5 mL with 45 mL of water. For each plate, two substrate tablets are dissolved in 4.5 mL of the assay buffer, mixing by vortex to break up the tablet. Stop solution is diluted 12 mL with 36 mL of water. In a tissue culture hood, 20 μL of each osteoclast well supernatant is transferred to a 96 well plate. A 30 μL aliquot of the substrate solution is added to each well and incubated at 37° C. for 20 minutes, then added […] stop solution to each well. The absorbance of each well is read at 405 nm on Safire plate reader. The absorbance reading is plotted vs. concentration to provide the IC50 for each compound.

[2] = system: PLP139-151-induced relapsing-remitting EAE; experiment: PLP139-151-induced relapsing-remitting EAE; set-up: species or system SJL mice; details: mouse, in vivo
Experimental: Method: CSF-1R inhibitors as described herein were tested in mouse relapsing-remitting multiple sclerosis (MS) model. […] Female […] mice 6 weeks old were purchased from Harlan and maintained for 1 week prior to beginning the experiment. Mice were randomly assigned into groups of 10 animals (plus the additional mice per group to be used for histology), and primed with 50 μg PLP139-151/CFA on Day 0. On Day 16-20 post disease induction (onset of remission), the experimental compounds in dose groups 2 and 3 were administered daily via gavage to the groups for a period of 3 weeks (with the final treatment on ˜Day 37-41 post disease induction). On Day 10 post disease induction (disease onset) treatment of group 4 began, and continued to the same day as groups 2 and 3 (˜Day 37-41 post disease induction). After administration of the test compounds, the mice were followed until Day 45 to assess clinical disease, delayed type hypersensitivity (DTH), and various in vitro immunological assays. Histological signs of disease at various time points during the disease course were also assessed. […]

Row | IC50 [1] [nM] | Structure (SMILES) | clinical scores after discontinuation of therapy [2]
1 | < 100 | COc1ncc(F)cc1CNc1ccc(Cc2c[nH]c3ncc(C#N)cc23)c(F)n1 [Compound P-2193, 3-{2-Fluoro-6-[(5-fluoro-2-methoxy-pyridin-3-ylmethyl)-amino]-pyridin-3-ylmethyl}-1H-pyrrolo[2,3-b]pyridine-5-carbonitrile] | 
2 |  | CCCCCCCCc1ccc(CCC(N)(CO)CO)cc1 [FTY-720] | rapid rebound of clinical scores
